The values that follow come from patent publication EP0938471B1, “THE PREPARATION AND USE OF ORTHO-SULFONAMIDO ARYL HYDROXAMIC ACIDS AS MATRIX METALLOPROTEINASE AND TACE INHIBITORS” (priority 1996, dated 1998).

Holding throughout (format): biochemical
For assay [1], the target named is T1, MMP-1 (Homo sapiens, UniProt P03956).
T1 sequence (P03956 100-469): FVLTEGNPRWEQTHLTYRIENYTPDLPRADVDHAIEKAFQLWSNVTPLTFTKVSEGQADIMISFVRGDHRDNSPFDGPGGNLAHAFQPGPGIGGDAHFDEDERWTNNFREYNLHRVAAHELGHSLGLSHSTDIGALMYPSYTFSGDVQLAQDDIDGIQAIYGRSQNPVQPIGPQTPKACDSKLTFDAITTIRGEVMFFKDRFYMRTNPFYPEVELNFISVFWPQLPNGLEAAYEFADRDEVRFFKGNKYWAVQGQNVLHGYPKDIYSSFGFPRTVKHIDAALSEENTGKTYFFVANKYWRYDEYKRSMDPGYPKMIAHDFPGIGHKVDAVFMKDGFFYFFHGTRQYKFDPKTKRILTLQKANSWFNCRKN
The assay can be described thus: MMP-1 inhibition (thiopeptide or fluorescent peptide substrate assay). As to conditions: for IC50: read-out: MMP-1 IC50.
Procedure: The enzyme activity is measured by the rate of the color increase. The thiopeptide substrate is made up fresh as a 20 mM stock in 100% DMSO and the DTNB is dissolved in 100% DMSO as a 100 mM stock and stored in the dark at room temperature. Both the substrate and DTNB are diluted together to 1 mM with substrate buffer (50 mM HEPES pH 7.5, 5 mM CaCl2) before use. The stock of enzyme is diluted with assay buffer (50 mM HEPES, pH 7.5, 5 mM CaCl2, 0.02% Brij) to the desired final concentration.
Alternatively, a fluorescent peptide substrate is used. In this assay, the peptide substrate contains a fluorescent group and a quenching group. Upon cleavage of the substrate by an MMP, the fluorescence that is generated is quantitated on the fluorescence plate reader. The assay is run in HCBC assay buffer (50mM HEPES, pH 7.0, 5 mM Ca^+2, 0.02% Brij, 0.5% Cysteine), with human recombinant MMP-1, MMP-9, or MMP-13. The substrate is dissolved in methanol and stored frozen in 1 mM aliquots. For the assay, substrate and enzymes are diluted in HCBC buffer to the desired concentrations. Compounds are added to the 96 well plate containing enzyme and the reaction is started by the addition of substrate.
For either the thiopeptide or fluorescent peptide assays, the slope of the line is calculated and represents the reaction rate. The linearity of the reaction rate is confirmed (r^2 >0.85). The mean (x±sem) of the control rate is calculated and compared for statistical significance (p<0.05) with drug-treated rates using Dunnett's multiple comparison test.

Assay [2] has as its target MMP-13 (Homo sapiens, UniProt P45452). The assay can be described thus: MMP-13 inhibition (thiopeptide or fluorescent peptide substrate assay).
For assay [3], the target named is MMP-9 (Homo sapiens, UniProt P14780). The assay can be described thus: MMP-9 inhibition (thiopeptide or fluorescent peptide substrate assay). As to conditions: read-out: MMP-9 IC50.
MMP-9, sequence (P14780 94-707): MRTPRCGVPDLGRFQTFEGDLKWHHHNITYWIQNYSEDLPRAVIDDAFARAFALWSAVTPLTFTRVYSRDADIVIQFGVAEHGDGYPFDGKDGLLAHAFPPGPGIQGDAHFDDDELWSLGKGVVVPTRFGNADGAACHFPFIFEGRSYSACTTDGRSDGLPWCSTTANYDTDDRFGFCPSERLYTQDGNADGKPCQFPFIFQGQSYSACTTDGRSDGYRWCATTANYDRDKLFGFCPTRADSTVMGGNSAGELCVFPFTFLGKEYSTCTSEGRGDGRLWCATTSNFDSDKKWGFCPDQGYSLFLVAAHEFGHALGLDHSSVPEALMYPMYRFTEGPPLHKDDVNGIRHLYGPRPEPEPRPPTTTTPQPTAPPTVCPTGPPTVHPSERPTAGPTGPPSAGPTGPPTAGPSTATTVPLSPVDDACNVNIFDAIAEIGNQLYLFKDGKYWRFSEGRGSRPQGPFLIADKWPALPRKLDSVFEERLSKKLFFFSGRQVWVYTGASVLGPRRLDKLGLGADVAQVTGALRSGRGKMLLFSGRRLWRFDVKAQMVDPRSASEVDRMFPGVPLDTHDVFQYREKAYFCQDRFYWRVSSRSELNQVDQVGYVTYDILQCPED
For assay [4], the target named is TACE (Homo sapiens, UniProt P78536). The assay can be described thus: TACE inhibition (fluorescent peptidyl substrate). As to conditions: for inhibition at 1 µM: at 1µM concentration.
TACE, sequence (P78536 215-824): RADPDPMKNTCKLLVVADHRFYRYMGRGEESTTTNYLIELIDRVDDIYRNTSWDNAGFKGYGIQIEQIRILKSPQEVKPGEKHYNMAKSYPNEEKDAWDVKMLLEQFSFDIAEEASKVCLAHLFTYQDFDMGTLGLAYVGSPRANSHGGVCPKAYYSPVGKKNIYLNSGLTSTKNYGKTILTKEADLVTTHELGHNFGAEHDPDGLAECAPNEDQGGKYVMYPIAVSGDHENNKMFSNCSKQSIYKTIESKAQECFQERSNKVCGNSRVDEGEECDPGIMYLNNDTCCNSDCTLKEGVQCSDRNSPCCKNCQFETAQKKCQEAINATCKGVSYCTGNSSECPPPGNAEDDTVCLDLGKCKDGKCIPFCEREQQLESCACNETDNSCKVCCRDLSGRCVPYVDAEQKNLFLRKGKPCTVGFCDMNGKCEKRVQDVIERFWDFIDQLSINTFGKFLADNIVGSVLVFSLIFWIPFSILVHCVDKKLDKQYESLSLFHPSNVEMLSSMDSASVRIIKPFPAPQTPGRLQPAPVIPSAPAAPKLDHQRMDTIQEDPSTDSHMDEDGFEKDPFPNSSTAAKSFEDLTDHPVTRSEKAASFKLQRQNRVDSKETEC
Procedure: Using 96-well black microtiter plates, each well receives a solution composed of 10 µL TACE (Immunex, final concentration 1µg/mL), 70µL Tris buffer, pH 7.4 containing 10% glycerol (final concentration 10 mM), and 10 µL of test compound solution in DMSO (final concentration 1µM, DMSO concentration <1%) and incubated for 10 minutes at room temperature.
The reaction is read (excitation 340 nm, emission 420 nm) for 10 min. and the increase in fluorescence over time is plotted as a linear line. The slope of the line is calculated and represents the reaction rate.
The linearity of the reaction rate is confirmed (r^2 >0.85). The mean (x±sem) of the control rate is calculated and compared for statistical significance (p<0.05) with drug-treated rates using Dunnett's multiple comparison test.

Where two headings read alike, the source gives them in different places.

With `COc1ccc(S(=O)(=O)N(Cc2ccccc2)c2cc(C)ccc2C(=O)NO)cc1` [Example 26, 2-[Benzyl-(4-methoxy-benzenesulfonyl)-amino]-N-hydroxy-4-methyl-benzamide], the IC50 is 884 nM in assay [1], 982 nM in assay [2] (read-out: MMP-13 IC50), 346 nM in assay [3] and above 1000 nM in assay [4] (read-out: TACE IC50).
`COc1ccc(S(=O)(=O)N(Cc2ccccc2)c2cccc(C)c2C(=O)NO)cc1` [Example 27, 2-[Benzyl-(4-methoxy-benzenesulfonyl)-amino]-N-hydroxy-6-methyl-benzamide]: the IC50 in assay [1] was 1570 nM; in assay [2] (read-out: MMP-13 IC50), 717 nM; in assay [3] it was 440 nM; in assay [4] (read-out: TACE IC50) it was above 1000 nM.
For `COc1ccc(S(=O)(=O)N(Cc2ccccc2)c2ccc(C)cc2C(=O)NO)cc1` [Example 29, 2-[Benzyl-(4-methoxy-benzenesulfonyl)-amino]-N-hydroxy-5-methyl-benzamide] the same measures were 553 nM, 728 nM, 353 nM and 1000 nM.
In the same order, the values of `COc1ccc(S(=O)(=O)N(Cc2ccccc2)c2c(OCC(F)(F)F)cccc2C(=O)NO)cc1` [Example 55, 2-[Benzyl-(4-methoxy-benzenesulfonyl)-amino]-N-hydroxy-3-(2,2,2-trifluoroethoxy)-benzamide] are 670 nM, 216 nM, 29 nM and above 1000 nM.
Regarding `COCCOCOc1cccc(C(=O)NO)c1N(Cc1ccccc1)S(=O)(=O)c1ccc(OC)cc1` [Example 56, 2-[Benzyl-(4-methoxy-benzenesulfonyl)-amino]-N-hydroxy-3-(2-methoxy-ethoxymethoxy)-benzamide], the IC50 in assay [1] was above 1000 nM; in assay [2] (read-out: MMP-13 IC50), 138 nM; in assay [3], 57 nM; in assay [4] (read-out: TACE IC50), above 1000 nM.
As to `COc1ccc(S(=O)(=O)N(Cc2ccccc2)c2c(OCc3ccc(C(=O)NO)cc3)cccc2C(=O)NO)cc1` [Example 57, 2-[Benzyl-(4-methoxy-benzenesulfonyl)-amino]-3-[4-(hydroxyaminocarbonyl)-benzyloxy]-N-hydroxy-benzamide], the IC50 in assay [1] is above 500 nM; in assay [2] (read-out: MMP-13 IC50), 33 nM; in assay [3] it was 12 nM; in assay [4] (read-out: TACE IC50), 1000 nM.
With `COc1ccc(S(=O)(=O)N(Cc2ccccc2)c2c(OCCCC(=O)NO)cccc2C(=O)NO)cc1` [Example 58, 2-[Benzyl-(4-methoxy-benzenesulfonyl)-amino]-N-hydroxy-3-(3-hydroxycarbamoyl-propoxy)-benzamide], the IC50 came to 244 nM in assay [1], 36 nM in assay [2] (read-out: MMP-13 IC50), 5 nM in assay [3] and 682 nM in assay [4] (read-out: TACE IC50).
In the same order, the values of `COc1ccc(S(=O)(=O)N(Cc2ccccc2)c2c(OCCCCC(=O)NO)cccc2C(=O)NO)cc1` [Example 59, 2-[Benzyl-(4-methoxy-benzenesulfonyl)-amino]-N-hydroxy-3-(4-hydroxycarbamoyl-butoxy)-benzamide] are 242 nM, 34 nM, 8 nM and above 1000 nM.
In the same order, the values of `COc1ccc(S(=O)(=O)N(Cc2ccccc2)c2c(OC(C)C)cccc2C(=O)NO)cc1` [Example 60, 2-[Benzyl-(4-methoxy-benzenesulfonyl)-amino]-N-hydroxy-3-isopropoxy-benzamide] are 152 nM, 15 nM, 7 nM and 232 nM.
`COc1ccc(S(=O)(=O)N(Cc2ccccc2)c2c(C)cc(C)cc2C(=O)NO)cc1` [Example 68, 2-[Benzyl-(4-methoxy-benzenesulfonyl)-amino]-N-hydroxy-3,5-dimethyl-benzamide]: the IC50 was determined as 82 nM in assay [1], 15 nM in assay [2] (read-out: MMP-13 IC50), 21 nM in assay [3] and 239 nM in assay [4] (read-out: TACE IC50).
In the same order, the values of `Cc1cc(C)c(N(Cc2ccccc2)S(=O)(=O)c2ccc(F)cc2)c(C(=O)NO)c1` [Example 69, 2-[Benzyl-(4-fluoro-benzenesulfonyl)-amino]-N-hydroxy-3,5-dimethyl-benzamide] are 153 nM, 1370 nM, 874 nM and above 1000 nM.
With `CCCCOc1ccc(S(=O)(=O)N(Cc2ccccc2)c2c(C)cc(C)cc2C(=O)NO)cc1` [Example 72, 2-[Benzyl-(4-butoxy-benzenesulfonyl)-amino]-N-hydroxy-3,5-dimethyl-benzamide], the IC50 in assay [1] is above 1000 nM; in assay [2] (read-out: MMP-13 IC50) it was 137 nM; in assay [3], 144 nM; in assay [4] (read-out: TACE IC50), 377 nM.
`Cc1cc(C)c(N(Cc2ccccc2)S(=O)(=O)c2ccc(OCc3ccccc3)cc2)c(C(=O)NO)c1` [Example 74, 2-[Benzyl-(4-benzyloxy-benzenesulfonyl)-amino]-N-hydroxy-3,5-dimethyl-benzamide]: the IC50 in assay [1] is above 1000 nM; in assay [2] (read-out: MMP-13 IC50), 959 nM; in assay [3], 554 nM; in assay [4], 429 nM.
For the molecule `C#Cc1cc(C)c(N(Cc2ccccc2)S(=O)(=O)c2ccc(OC)cc2)c(C(=O)NO)c1` [Example 80, 2-[Benzyl-(4-methoxy-benzenesulfonyl)-amino]-5-ethynyl-N-hydroxy-3-methyl-benzamide], the IC50 was determined as 109 nM in assay [1], 18 nM in assay [2] (read-out: MMP-13 IC50), 21 nM in assay [3] and 134 nM in assay [4] (read-out: TACE IC50).
For `COc1ccc(S(=O)(=O)N(Cc2cccnc2)c2c(C)cc(C)cc2C(=O)NO)cc1` [Example 88, N-Hydroxy-2-[(4-methoxy-benzenesulfonyl)-pyridin-3-ylmethyl-amino]-3,5-dimethyl-benzamide] the same measures were 132 nM, 11 nM, 15 nM and 50 nM.
As for `COc1ccc(S(=O)(=O)N(Cc2ccccc2)c2cc3ccccc3cc2C(=O)NO)cc1` [Example 94, 3-[Benzyl-(4-methoxy-benzenesulfonyl)-amino]-naphthalene-2-carboxylic acid hydroxyamide], the IC50 is 1000 nM in assay [1], 209 nM in assay [2] (read-out: MMP-13 IC50), 276 nM in assay [3] and above 1000 nM in assay [4] (read-out: TACE IC50).
In the same order, the values of `COc1ccc(S(=O)(=O)N(Cc2cccc(OC)c2)c2c(C)cc(C)cc2C(=O)NO)cc1` [Example 115, N-Hydroxy-2-[(4-methoxy-benzenesulfonyl)-(3-methoxy-benzyl)-amino]-3,5-dimethyl-benzamide] are above 1000 nM, 20 nM, 11 nM and 173 nM.
In the same order, the values of `COc1ccc(S(=O)(=O)N(Cc2c(F)c(F)c(OC)c(F)c2F)c2c(C)cc(C)cc2C(=O)NO)cc1` [Example 116, N-Hydroxy-2-[(4-methoxy-benzenesulfonyl)-(2,3,5,6-tetrafluoro-4-methoxy-benzyl)-amino]-3,5-dimethyl-benzamide] are 201 nM, 14 nM, 13 nM and 271 nM.
As to `COc1ccc(S(=O)(=O)N(Cc2ccccc2)c2c(C(=O)NO)cccc2C(F)(F)F)cc1` [Example 125, 2-[Benzyl-(4-methoxy-benzenesulfonyl)-amino]-N-hydroxy-3-trifluoromethyl-benzamide], the IC50 in assay [1] was above 1000 nM; in assay [2], 134 nM; in assay [4] (read-out: TACE IC50), 300 nM.
As to `COc1ccc(S(=O)(=O)N(C)c2c(CN3CCN(C)CC3)cccc2C(=O)NO)cc1` [Example 194, N-Hydroxy-2-[(4-methoxybenzenesulfonyl)-methylamino]-3-(4-methylpiperazin-1-ylmethyl)-benzamide], the concentration for half-maximal inhibition (IC50) in assay [1] stood at 306 nM; in assay [2] (read-out: MMP-13 IC50) it was 12 nM; in assay [4] (read-out: TACE IC50), 154 nM.
`CCN(CC)Cc1cc(C)c(N(Cc2ccccc2)S(=O)(=O)c2ccc(OC)cc2)c(C(=O)NO)c1` [Example 282, 2-[Benzyl-(4-methoxy-benzenesulfonyl)-amino]-5-diethylaminomethyl-N-hydroxy-3-methyl-benzamide]: the IC50 in assay [1] was 1050 nM; in assay [2] (read-out: MMP-13 IC50), 113 nM. The inhibition at 1 µM in assay [4] is 44%.
For the molecule `CCOc1ccc(S(=O)(=O)N(Cc2ccccc2)c2c(C)cc(C)cc2C(=O)NO)cc1` [Example 302, 2-[Benzyl-(4-ethoxy-benzenesulfonyl)-amino]-N-hydroxy-3,5-dimethyl-benzamide], the results for the IC50 in assay [1], in assay [2] (read-out: MMP-13 IC50) and in assay [4] (read-out: TACE IC50) were 291 nM, 24 nM and 173 nM, respectively.
`Cc1cc(C)c(N(Cc2ccccc2)S(=O)(=O)c2ccc(OC(C)C)cc2)c(C(=O)NO)c1` [Example 304, 2-[Benzyl-(4-isopropoxy-benzenesulfonyl)-amino]-N-hydroxy-3,5-dimethyl-benzamide]: the IC50 in assay [1] is 4100 nM; in assay [2] (read-out: MMP-13 IC50), 305 nM. Besides, the inhibition at 1 µM in assay [4] was 25%.
Regarding `COc1ccc(S(=O)(=O)N(Cc2ccccc2)c2c(C(=O)NO)cccc2N(C)C)cc1` [Example 390, 2-[Benzyl-(4-methoxy-benzenesulfonyl)-amino]-3-dimethylamino-N-hydroxy-benzamide], the inhibition at 1 µM in assay [1] (read-out: MMP-1 % inhibition, footnote: 1µM) was 19%; in assay [4], 39%. In assay [2], this molecule showed an IC50 of 531 nM.

One may read the IC50 as the concentration that inhibits the measured activity by half. The term inhibition denotes the drop in the measured response relative to a control, in per cent.
